This note sets out measurements from patent US20190145978A1, “APPLICATION OF PDE3A IN JUDGMENT OF TUMOR TREATMENT EFFECT OF ANAGRELID” (Shanghai Institute of Materia Medica, Chinese Academy of …, priority 2016, published 2019).

Data set [1] deals with platelets. Briefly: Inhibition of platelets in vitro. Conditions: Platelet; read-out: IC50 of anagrelide inhibiting platelets in vitro. In kind it is cell-based.
A short description of data set [2]: Animal experiment, safety at tumor-inhibiting doses. Conditions: 10 mg-200 mg/kg. Format: in vivo.
Data set [3] deals with SMMC7721. Briefly: MTT assay, IC50 of anagrelide on tumor cell line. Format: cell-based. The conditions noted are these: Homo sapiens, SMMC-7721, 72 h. The protocol:
(§1) 3. Determination of Half Poisoning Dose of Drugs to Cells (MTT Method)
(§2) The liquid containing drugs was continuously geometrically diluted to 1:10, 1:100, 1:1,000, 1:10,000 with a cell maintenance solution, and a normal cell control group was set up. Different concentrations of each drug were added into a 96-well plate that has been grown into a single layer, respectively, and inoculated per dilution in triplicate, and 100 μl was added per well, and the plate was incubated in a carbon dioxide incubator at 37° C. for 72 h, followed by 5 μg/ml 25 μL of MTT was added.
(§3) The culture was continued for 3.5 h, and the supernatant was removed and discarded. 150 μl of the dissolving solution DMSO was added to each well, and the plate was shaked for 5 to 10 min, until the crystals were completely dissolved. Then the OD value at 570 nm was measured by a microplate reader. The cell viability of each drug dilution was calculated: cell viability %=(mean value of experimental well OD measured value/mean value of control well OD measured value)×100%. The drug concentration at 50% cell poisoning (IC50) was calculated using probability unit regression.
(§4) The cell lines in Example 1 were subjected to an activity assay using Anagrelide at a concentration of 1 μM, and the cell lines were classified into three categories according to cell viability: sensitive (S), moderately sensitive (M), and insensitive (R), and the IC50 value of anagrelide in inhibiting each cell line was further determined.
(In general: Formazan colour is commonly taken as a measure of viable cells.)

For data set [4], the system named is Hela. Put plainly: MTT assay, IC50 of anagrelide on tumor cell line. Format: cell-based. Conditions: Homo sapiens, 72 h. The protocol:
as §1, §2, §3, §4

Data set [5] concerns Bel7404. Put plainly: MTT assay, IC50 of anagrelide on tumor cell line. Conditions: Homo sapiens, BEL-7404, 72 h. In kind it is cell-based. The method, then: as §1, §2, §3, §4
The subject of data set [6] is FHCC98. Briefly: MTT assay, IC50 of anagrelide on tumor cell line. Format: cell-based. The conditions noted are these: Homo sapiens, FHCC-98, 72 h. The method, then:
as §1, §2, §3, §4

In data set [7] the test system is SW1116. Briefly: MTT assay, IC50 of anagrelide on tumor cell line. Format: cell-based. Conditions: Homo sapiens, SW 1116, 72 h. The method, then:
as §1, §2, §3, §4

Data set [8] relates to H4. Briefly: MTT assay, IC50 of anagrelide on tumor cell line. The conditions noted are these: Homo sapiens, 72 h. In kind it is cell-based. The method, then:
as §1, §2, §3, §4

The subject of data set [9] is A498. Briefly: MTT assay, IC50 of anagrelide on tumor cell line. Conditions: Homo sapiens, 72 h. Format: cell-based. The protocol: as §1, §2, §3, §4
Data set [10] relates to Bel7404, A498 and SW1116. Put plainly: Antitumor activity assay (MTT), moderately sensitive PDE3A-positive cell lines. Format: cell-based, human. The method, then:
(§5) Wherein anagrelide (1 μM) is used for treatment for 72 hours, and MTT assay is used to detect the cell survival rate. The cells are classified by the test results: sensitive (survival rate <40%), moderately sensitive (40-75% of survival rate), resistance (survival rate >75. The cell names in the figure are marked with a circle and a triangle respectively to identify the sensitive group and the moderately sensitive group. 3. Determination of Half Poisoning Dose of Drugs to Cells (MTT Method) The liquid containing drugs was continuously geometrically diluted to 1:10, 1:100, 1:1,000, 1:10,000 with a cell maintenance solution, and a normal cell control group was set up. Different concentrations of each drug were added into a 96-well plate that has been grown into a single layer, respectively, and inoculated per dilution in triplicate, and 100 μl was added per well, and the plate was incubated in a carbon dioxide incubator at 37° C. for 72 h, followed by 5 μg/ml 25 μL of MTT was added. The culture was continued for 3.5 h, and the supernatant was removed and discarded. […] Then the OD value at 570 nm was measured by a microplate reader. The cell viability of each drug dilution was calculated: cell viability %=(mean value of experimental well OD measured value/mean value of control well OD measured value)×100%. […]

Data set [11] concerns HeLa cells transfected with pde3a siRNA. Put plainly: RTCA growth monitoring of HeLa cells after pde3a siRNA knockdown and anagrelide treatment. Format: cell-based, human. Conditions: pde3a siRNA KD1/KD2 vs NC. The protocol: Wherein, NC: control group, KD: PDE3A knockdown group. The HeLa cells in logarithmic growth phase were inoculated into 96-well plates or RTCA plates at about 6000/well and cultivated overnight until the cells were attached about 70-80%, and the cells were in good condition; a certain amount of serum-free and antibiotic-free medium was added into two EP tubes, respectively, and a suitable amount of siRNA was added into one tube and mixed, while a suitable amount of Lipofectamine™2000 was added into the other tube and mixed at room temperature for 5-10 min. The medium supplemented with Lipofectamine™ reagent was added into the siRNA-containing EP tube and mixed at room temperature for 15 min; during the placement, the cells were washed once with serum-free and non-double antibody medium, and 75 μL of the medium was added, ready for use. After 15 minutes, the mixed medium was added into the cell culture dish, 25 μL/well, and gently shaken and mixed; after cultured at 37° C., 5% CO2 for 6 hours, the medium was changed to fresh medium containing 10% FBS; after 24-72 h, the expression of RNAi interference protein was detected by western blot. […] The real-time monitor automatically monitored cell growth for more than 4 days, and the amount of cells was reflected according to the size of the resistance formed by spreading the cells. […]

Data set [12] concerns Twenty cell lines negatively expressing PDE3A. Briefly: Antitumor activity assay (MTT), PDE3A-negative cell lines. Format: cell-based, human. The method, then:
as §5

Data set [13] relates to SMMC7721, FHCC98, H4, and HeLa. Briefly: Antitumor activity assay (MTT), anagrelide-sensitive PDE3A-positive cell lines. Format: cell-based, human. The conditions noted are these: for IC50: Homo sapiens. The protocol: Wherein anagrelide (1 μM) is used for treatment for 72 hours, and MTT assay is used to detect the cell survival rate. The cells are classified by the test results: sensitive (survival rate <40%), moderately sensitive (40-75% of survival rate), resistance (survival rate >75. The cell names in the figure are marked with a circle and a triangle respectively to identify the sensitive group and the moderately sensitive group. 3. Determination of Half Poisoning Dose of Drugs to Cells (MTT Method) The liquid containing drugs was continuously geometrically diluted to 1:10, 1:100, 1:1,000, 1:10,000 with a cell maintenance solution, and a normal cell control group was set up. Different concentrations of each drug were added into a 96-well plate that has been grown into a single layer, respectively, and inoculated per dilution in triplicate, and 100 μl was added per well, and the plate was incubated in a carbon dioxide incubator at 37° C. for 72 h, followed by 5 μg/ml 25 μL of MTT was added. The culture was continued for 3.5 h, and the supernatant was removed and discarded. 150 μl of the dissolving solution DMSO was added to each well, and the plate was shaked for 5 to 10 min, until the crystals were completely dissolved. Then the OD value at 570 nm was measured by a microplate reader. The cell viability of each drug dilution was calculated: cell viability %=(mean value of experimental well OD measured value/mean value of control well OD measured value)×100%. The drug concentration at 50% cell poisoning (IC50) was calculated using probability unit regression. The cell lines in Example 1 were subjected to an activity assay using Anagrelide at a concentration of 1 μM, and the cell lines were classified into three categories according to cell viability: sensitive (S), moderately sensitive (M), and insensitive (R), and the IC50 value of anagrelide in inhibiting each cell line was further determined.

For data set [14], the system named is HeLa cells transfected with pde3a siRNA. Briefly: PI detection of apoptotic cells in HeLa after PDE3A knockdown and anagrelide treatment. In kind it is cell-based, human. Conditions: 48 hours after PDE3A knockout, anagrelide 36 hours, PI staining. The method, then: The HeLa cells in logarithmic growth phase were inoculated into 96-well plates or RTCA plates at about 6000/well and cultivated overnight until the cells were attached about 70-80%, and the cells were in good condition; a certain amount of serum-free and antibiotic-free medium was added into two EP tubes, respectively, and a suitable amount of siRNA was added into one tube and mixed, while a suitable amount of Lipofectamine™2000 was added into the other tube and mixed at room temperature for 5-10 min. The medium supplemented with Lipofectamine™ reagent was added into the siRNA-containing EP tube and mixed at room temperature for 15 min; during the placement, the cells were washed once with serum-free and non-double antibody medium, and 75 μL of the medium was added, ready for use. After 15 minutes, the mixed medium was added into the cell culture dish, 25 μL/well, and gently shaken and mixed; after cultured at 37° C., 5% CO2 for 6 hours, the medium was changed to fresh medium containing 10% FBS; after 24-72 h, the expression of RNAi interference protein was detected by western blot. In 96-well plates, cells were treated with different compounds for 24-36 hours, and 2 μL of PI dye liquor (25 ug/mL) was added into 96-well plates. Cells were incubated for 20 min, and photographed under a fluorescence microscope for observation of the number of red fluorescent cells. […]

The structures appear in SMILES notation. Read-outs that look alike come from different tables or passages of the source. Some results are limits rather than exact numbers.

Broadly, the IC50 is the point on the concentration scale where inhibition reaches its midpoint. Consider `O=C1CN2Cc3c(ccc(Cl)c3Cl)NC2=N1` [anagrelide, 6,7-dichloro-1,5-dihydroimidazo [2,1-b]quinazolin-2(3H) one], for which the IC50 in data set [1] was 270 to 1000 nM; in [3] it was 15 nM; in [4], 22 nM; in data set [5] it was 428 nM; in [6], 8 nM; in [7], 14500 nM. Besides, the concentration for half-maximal inhibition (IC50) in data set [8] was 23 nM; in data set [9], 15900 nM; in data set [10] (Homo sapiens, Bel7404, A498, SW1116 (PDE3A positive)), 400 to 16000 nM; in data set [12] (Homo sapiens, twenty cell lines negatively expressing PDE3A), greater than 50000 nM; in data set [13] (SMMC7721, FHCC98, H4, HeLa (PDE3A positive), read-out: IC50 values, sensitive cell lines), less than 30 nM; in data set [13] (sensitive tumor cells, in vitro, read-out: IC50 for sensitive tumor cells in vitro), less than 30 nM. Also, the “safety at doses that inhibit tumor cell growth” value in [2] is given as “safe”. Moreover, the “sensitivity class by cell survival rate” value in [10] (anagrelide 1 μM, 72 hours, MTT) is “moderately sensitive (moderately sensitive (40-75% of survival rate))”; in data set [12] (anagrelide 1 μM, 72 hours, MTT), “not sensitive”; in [13] (anagrelide 1 μM, 72 hours, MTT), “sensitive (sensitive (survival rate <40%))”. For the same compound, the “survival rate after anagrelide was added, KD vs NC group” value in data set [11] was “the survival rate of KD2 with the lower level of PDE3A protein was the highest, while that in the NC group was the lowest”. Further, the “PI positive cells, KD group vs control group” value in data set [14] was “fewer PI positive cells than that in the control group”.
